Experimental data taken from ChEMBL document CHEMBL1909046, “DrugMatrix in vitro pharmacology data”.
Where a SMILES comes first, the peptide text is derived from it. Bridges are numbered along the chain shown (N, C = ends). [ ]: non-standard residue; d: D form. The star is where a group is joined. Threoninol(2S,3R) = C[C@@H](O)[C@H](CO)N*

Experiments:
Leukotriene C4 synthase = target: T1, Leukotriene C4 synthase (Cavia porcellus, UniProt A6XA80); format: tissue-based, Lung;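 further: enzyme inhibition assay of leukotriene C4 synthase, using LTA4 as the substrate; in other assays of this panel Not Active means under 50% inhibition at 10 µM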
T1 sequence (A6XA80 whole entry): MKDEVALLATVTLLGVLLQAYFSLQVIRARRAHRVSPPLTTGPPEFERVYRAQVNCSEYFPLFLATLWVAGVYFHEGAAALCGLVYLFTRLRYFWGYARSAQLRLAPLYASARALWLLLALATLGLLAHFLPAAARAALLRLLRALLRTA

[1] = target: Prostaglandin G/H synthase 1 (Homo sapiens, UniProt P23219); experiment: biochemical; format: tissue-based, Platelet; details: platelet;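 further: inhibition of COX-1 enzyme activity, with arachidonic acid supplied as substrate; in other assays of this panel Not Active means under 50% inhibition at 10 µM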
Neutrophil elastase = target: T2, Neutrophil elastase (Homo sapiens, UniProt P08246); format: tissue-based;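 further: inhibition of neutrophil elastase enzyme activity, measured with a p-nitroanilide-linked peptide substrate; in other assays of this panel Not Active means under 50% inhibition at 10 µM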
T2 sequence (P08246 whole entry): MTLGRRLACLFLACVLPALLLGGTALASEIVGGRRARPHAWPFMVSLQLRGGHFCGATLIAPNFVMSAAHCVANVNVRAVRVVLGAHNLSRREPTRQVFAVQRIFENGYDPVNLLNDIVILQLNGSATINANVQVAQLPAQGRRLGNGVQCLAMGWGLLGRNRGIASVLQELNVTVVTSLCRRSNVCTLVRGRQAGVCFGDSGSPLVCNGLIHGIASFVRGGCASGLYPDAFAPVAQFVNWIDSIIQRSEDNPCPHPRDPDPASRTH

Glycine receptor = Glycine receptor (Rattus norvegicus, UniProt P22771+P24524+P07727+P20781); format: cell membranes, Wistar, Spinal cord, Membrane; further: in other assays of this panel Not Active means under 50% inhibition at 10 µM
Cathepsin G = target: T3, Cathepsin G (Homo sapiens, UniProt P08311); format: tissue-based; details: neutrophil
T3 sequence (P08311 whole entry): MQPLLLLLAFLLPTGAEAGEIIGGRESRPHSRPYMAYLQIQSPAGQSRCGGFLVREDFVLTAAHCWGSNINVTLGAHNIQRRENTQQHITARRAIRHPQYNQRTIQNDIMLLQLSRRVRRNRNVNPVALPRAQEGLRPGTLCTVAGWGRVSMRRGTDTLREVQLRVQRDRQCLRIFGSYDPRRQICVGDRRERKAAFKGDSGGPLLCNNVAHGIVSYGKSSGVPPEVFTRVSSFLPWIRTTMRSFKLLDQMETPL

Thromboxane-A synthase = target: T4, Thromboxane-A synthase (Homo sapiens, UniProt P24557); experiment: biochemical; format: tissue-based, Platelet; details: platelet
T4 sequence (P24557 whole entry): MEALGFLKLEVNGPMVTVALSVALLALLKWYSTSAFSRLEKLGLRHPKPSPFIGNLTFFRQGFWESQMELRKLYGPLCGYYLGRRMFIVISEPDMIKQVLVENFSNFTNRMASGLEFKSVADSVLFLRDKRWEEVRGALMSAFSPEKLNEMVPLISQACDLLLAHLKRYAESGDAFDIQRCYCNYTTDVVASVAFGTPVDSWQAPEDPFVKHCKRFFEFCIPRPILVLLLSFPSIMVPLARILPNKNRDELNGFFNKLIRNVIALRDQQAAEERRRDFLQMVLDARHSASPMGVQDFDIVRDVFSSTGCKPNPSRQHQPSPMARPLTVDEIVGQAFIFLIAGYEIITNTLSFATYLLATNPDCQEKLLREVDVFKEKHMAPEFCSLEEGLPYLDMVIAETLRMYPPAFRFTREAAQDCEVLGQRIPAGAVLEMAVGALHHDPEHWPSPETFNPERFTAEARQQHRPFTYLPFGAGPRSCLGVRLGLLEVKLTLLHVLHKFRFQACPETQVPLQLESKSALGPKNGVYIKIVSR

[2] = target: T5, C-X-C chemokine receptor type 1 (Homo sapiens, UniProt P25024); further: in other assays of this panel Not Active means under 50% inhibition at 10 µM
T5 sequence (P25024 whole entry): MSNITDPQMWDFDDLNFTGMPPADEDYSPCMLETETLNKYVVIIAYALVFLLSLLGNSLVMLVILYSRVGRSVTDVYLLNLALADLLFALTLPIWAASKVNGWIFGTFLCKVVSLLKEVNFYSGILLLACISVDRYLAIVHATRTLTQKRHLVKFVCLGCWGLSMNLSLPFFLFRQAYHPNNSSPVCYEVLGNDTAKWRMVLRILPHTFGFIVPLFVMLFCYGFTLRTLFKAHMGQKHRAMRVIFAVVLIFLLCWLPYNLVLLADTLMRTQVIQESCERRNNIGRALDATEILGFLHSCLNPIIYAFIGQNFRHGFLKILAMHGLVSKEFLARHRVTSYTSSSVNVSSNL

[3] = target: T6, Alpha-1B adrenergic receptor (Rattus norvegicus, UniProt P15823); experiment: DRUGMATRIX: Alpha-1B adrenergic receptor radioligand binding (ligand: prazosin); format: cell membranes, Wistar, Liver, Membrane; details: Not Active = under 50% inhibition at 10 µM
T6 sequence (P15823 whole entry): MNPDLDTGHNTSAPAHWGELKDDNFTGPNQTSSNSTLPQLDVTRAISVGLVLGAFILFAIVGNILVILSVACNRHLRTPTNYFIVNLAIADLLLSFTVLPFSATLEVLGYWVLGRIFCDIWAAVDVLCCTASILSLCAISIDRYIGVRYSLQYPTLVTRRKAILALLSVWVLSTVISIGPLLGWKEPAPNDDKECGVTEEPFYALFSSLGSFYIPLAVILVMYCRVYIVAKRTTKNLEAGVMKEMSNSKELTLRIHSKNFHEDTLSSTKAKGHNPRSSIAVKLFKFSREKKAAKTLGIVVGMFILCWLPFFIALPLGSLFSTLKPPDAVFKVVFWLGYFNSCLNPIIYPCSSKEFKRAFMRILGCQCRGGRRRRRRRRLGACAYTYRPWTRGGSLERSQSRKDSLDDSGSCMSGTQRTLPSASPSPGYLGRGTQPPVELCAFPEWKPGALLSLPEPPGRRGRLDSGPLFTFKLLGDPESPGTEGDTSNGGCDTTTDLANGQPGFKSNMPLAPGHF

Interstitial collagenase = target: T7, Interstitial collagenase (Homo sapiens, UniProt P03956); experiment: biochemical; format: tissue-based, Rheumatoid synovial fibroblasts
T7 sequence (P03956 whole entry): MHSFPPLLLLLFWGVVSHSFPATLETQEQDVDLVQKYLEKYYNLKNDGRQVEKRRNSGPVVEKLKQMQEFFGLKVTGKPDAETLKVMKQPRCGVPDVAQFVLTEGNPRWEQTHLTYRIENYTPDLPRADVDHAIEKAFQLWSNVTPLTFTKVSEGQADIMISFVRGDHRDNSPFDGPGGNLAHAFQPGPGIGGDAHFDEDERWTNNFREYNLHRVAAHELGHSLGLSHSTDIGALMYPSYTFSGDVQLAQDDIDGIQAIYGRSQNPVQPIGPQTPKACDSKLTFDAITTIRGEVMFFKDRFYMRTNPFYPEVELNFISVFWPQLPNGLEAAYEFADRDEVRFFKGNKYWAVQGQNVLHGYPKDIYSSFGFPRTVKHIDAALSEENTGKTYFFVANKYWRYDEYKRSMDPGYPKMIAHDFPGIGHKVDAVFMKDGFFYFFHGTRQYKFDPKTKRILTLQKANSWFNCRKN

Chain of Prostaglandin G/H synthase 1 (P23219 whole entry): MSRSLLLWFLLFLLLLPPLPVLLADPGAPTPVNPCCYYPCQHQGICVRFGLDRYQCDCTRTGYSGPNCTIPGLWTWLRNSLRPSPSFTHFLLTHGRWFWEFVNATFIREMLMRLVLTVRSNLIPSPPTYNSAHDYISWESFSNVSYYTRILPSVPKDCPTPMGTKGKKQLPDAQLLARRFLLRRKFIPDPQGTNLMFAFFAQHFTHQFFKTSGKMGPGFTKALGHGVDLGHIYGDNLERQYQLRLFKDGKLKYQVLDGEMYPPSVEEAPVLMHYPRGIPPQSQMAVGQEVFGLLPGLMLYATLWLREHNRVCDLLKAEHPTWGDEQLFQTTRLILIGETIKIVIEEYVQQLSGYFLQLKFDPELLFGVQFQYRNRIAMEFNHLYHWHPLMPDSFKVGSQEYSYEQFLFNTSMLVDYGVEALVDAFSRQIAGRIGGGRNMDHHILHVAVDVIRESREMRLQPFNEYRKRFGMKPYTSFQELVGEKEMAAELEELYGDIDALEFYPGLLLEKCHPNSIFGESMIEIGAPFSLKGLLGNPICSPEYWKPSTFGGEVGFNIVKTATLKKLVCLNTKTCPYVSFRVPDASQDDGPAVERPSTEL

Cc1ccccc1C(=O)N1CCC(Cc2ccccc2)CC1
Not Active: IC50 (Leukotriene C4 synthase) | IC50 [1] | IC50 (Neutrophil elastase) | IC50 (Glycine receptor) | IC50 (Cathepsin G) | IC50 (Thromboxane-A synthase) | IC50 [2] | IC50 [3] | IC50 (Interstitial collagenase)

C[C@@H](O)[C@H](CO)NC(=O)[C@@H]1CSSC[C@H](NC(=O)[C@H](N)Cc2ccccc2)C(=O)N[C@@H](Cc2ccccc2)C(=O)N[C@H](Cc2c[nH]c3ccccc23)C(=O)N[C@@H](CCCCN)C(=O)N[C@@H]([C@@H](C)O)C(=O)N1 (H-[dF]CF[dW]KTC-{Threoninol(2S,3R)}; disulfide 2-7)
Not Active: IC50 (Leukotriene C4 synthase) | IC50 [1] | IC50 (Neutrophil elastase) | IC50 (Glycine receptor) | IC50 (Cathepsin G) | IC50 (Thromboxane-A synthase) | IC50 [2] | IC50 [3] | IC50 (Interstitial collagenase)

S=C=Nc1cccc2ccccc12 [1-NAPHTHYLISOTHIOCYANATE]
Not Active: IC50 (Leukotriene C4 synthase) | IC50 [1] | IC50 (Neutrophil elastase) | IC50 (Glycine receptor) | IC50 (Cathepsin G) | IC50 (Thromboxane-A synthase) | IC50 [2] | IC50 [3] | IC50 (Interstitial collagenase)

C[C@](O)(CS(=O)(=O)c1ccc(F)cc1)C(=O)Nc1ccc(C#N)c(C(F)(F)F)c1 [(R)-BICALUTAMIDE]
Not Active: IC50 (Leukotriene C4 synthase) | IC50 [1] | IC50 (Neutrophil elastase) | IC50 (Glycine receptor) | IC50 (Cathepsin G) | IC50 (Thromboxane-A synthase) | IC50 [2] | IC50 [3] | IC50 (Interstitial collagenase)

CCCC(=O)Nc1ccc(OCC(O)CNC(C)C)c(C(C)=O)c1 (configuration not stated) [ACEBUTOLOL]
Not Active: IC50 (Leukotriene C4 synthase) | IC50 [1] | IC50 (Neutrophil elastase) | IC50 (Glycine receptor) | IC50 (Cathepsin G) | IC50 (Thromboxane-A synthase) | IC50 [2] | IC50 [3] | IC50 (Interstitial collagenase)

CC(=O)Nc1ccc(O)cc1 [ACETAMINOPHEN]
Not Active: IC50 (Leukotriene C4 synthase) | IC50 [1] | IC50 (Neutrophil elastase) | IC50 (Glycine receptor) | IC50 (Cathepsin G) | IC50 (Thromboxane-A synthase) | IC50 [2] | IC50 [3] | IC50 (Interstitial collagenase)

COc1cc2c(c3oc(=O)c4c(c13)CCC4=O)[C@@H]1C=CO[C@@H]1O2 [AFLATOXIN]
Not Active: IC50 (Leukotriene C4 synthase) | Ki (Leukotriene C4 synthase) | IC50 [1] | Ki [1] | IC50 (Neutrophil elastase) | Ki (Neutrophil elastase) | IC50 (Glycine receptor) | Ki (Glycine receptor) | IC50 (Cathepsin G) | Ki (Cathepsin G) | IC50 (Thromboxane-A synthase) | Ki (Thromboxane-A synthase) | IC50 [2] | Ki [2] | IC50 [3] | Ki [3] | IC50 (Interstitial collagenase) | Ki (Interstitial collagenase)

N=C(N)NC(=O)c1nc(Cl)c(N)nc1N [AMILORIDE]
Not Active: IC50 (Leukotriene C4 synthase) | IC50 [1] | IC50 (Neutrophil elastase) | IC50 (Glycine receptor) | IC50 (Cathepsin G) | IC50 (Thromboxane-A synthase) | IC50 [2] | IC50 [3] | IC50 (Interstitial collagenase)

Cc1cc(=O)n(-c2ccccc2)n1C [ANTIPYRINE]
Not Active: IC50 (Leukotriene C4 synthase) | IC50 [1] | IC50 (Neutrophil elastase) | IC50 (Glycine receptor) | IC50 (Cathepsin G) | IC50 (Thromboxane-A synthase) | IC50 [2] | IC50 [3] | IC50 (Interstitial collagenase)

CN1C(=O)COc2c(C(=O)NC3CN4CCC3CC4)cc(Cl)cc21 (configuration not stated) [AZASETRON]
Not Active: IC50 (Leukotriene C4 synthase) | IC50 [1] | IC50 (Neutrophil elastase) | IC50 (Glycine receptor) | IC50 (Cathepsin G) | IC50 (Thromboxane-A synthase) | IC50 [2] | IC50 [3] | IC50 (Interstitial collagenase)

C[C@H]1C[C@H]2[C@@H]3CCC4=CC(=O)C=C[C@]4(C)[C@@]3(Cl)[C@@H](O)C[C@]2(C)[C@@]1(O)C(=O)CO [BECLOMETHASONE]
Not Active: IC50 (Leukotriene C4 synthase) | IC50 [1] | IC50 (Neutrophil elastase) | IC50 (Glycine receptor) | IC50 (Cathepsin G) | IC50 (Thromboxane-A synthase) | IC50 [2] | IC50 [3] | IC50 (Interstitial collagenase)

CCOC(=O)[C@H](CCc1ccccc1)N[C@H]1CCc2ccccc2N(CC(=O)O)C1=O [BENAZEPRIL]
Not Active: IC50 (Leukotriene C4 synthase) | IC50 [1] | IC50 (Neutrophil elastase) | IC50 (Glycine receptor) | IC50 (Cathepsin G) | IC50 (Thromboxane-A synthase) | IC50 [2] | IC50 [3] | IC50 (Interstitial collagenase)
